Measurements taken from ChEMBL document CHEMBL5291721, “A preclinical secondary pharmacology resource illuminates target-adverse drug reaction associations of marketed drugs” (Nat Commun, 2023).

Experiments:
Bile salt export pump = Bile salt export pump (Homo sapiens, UniProt O95342); type: functional
Acetylcholinesterase = Acetylcholinesterase (Homo sapiens, UniProt P22303); type: functional
[1] = target: T1, Alpha-2A adrenergic receptor (Homo sapiens, UniProt P08913)
T1 sequence (P08913 whole entry): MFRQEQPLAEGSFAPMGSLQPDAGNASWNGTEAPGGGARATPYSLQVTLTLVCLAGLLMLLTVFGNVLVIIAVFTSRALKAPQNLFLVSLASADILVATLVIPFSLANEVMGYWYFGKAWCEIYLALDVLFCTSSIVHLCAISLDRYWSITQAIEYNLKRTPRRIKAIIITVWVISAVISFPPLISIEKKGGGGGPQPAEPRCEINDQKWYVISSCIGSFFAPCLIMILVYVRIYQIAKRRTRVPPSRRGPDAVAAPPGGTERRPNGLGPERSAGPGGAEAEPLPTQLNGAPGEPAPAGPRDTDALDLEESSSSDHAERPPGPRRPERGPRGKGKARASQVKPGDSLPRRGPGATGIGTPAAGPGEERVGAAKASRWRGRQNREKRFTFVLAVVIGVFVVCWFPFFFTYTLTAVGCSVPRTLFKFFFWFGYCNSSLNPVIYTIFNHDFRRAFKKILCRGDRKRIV

[2] = target: T2, Muscarinic acetylcholine receptor M2 (Homo sapiens, UniProt P08172)
T2 sequence (P08172 whole entry): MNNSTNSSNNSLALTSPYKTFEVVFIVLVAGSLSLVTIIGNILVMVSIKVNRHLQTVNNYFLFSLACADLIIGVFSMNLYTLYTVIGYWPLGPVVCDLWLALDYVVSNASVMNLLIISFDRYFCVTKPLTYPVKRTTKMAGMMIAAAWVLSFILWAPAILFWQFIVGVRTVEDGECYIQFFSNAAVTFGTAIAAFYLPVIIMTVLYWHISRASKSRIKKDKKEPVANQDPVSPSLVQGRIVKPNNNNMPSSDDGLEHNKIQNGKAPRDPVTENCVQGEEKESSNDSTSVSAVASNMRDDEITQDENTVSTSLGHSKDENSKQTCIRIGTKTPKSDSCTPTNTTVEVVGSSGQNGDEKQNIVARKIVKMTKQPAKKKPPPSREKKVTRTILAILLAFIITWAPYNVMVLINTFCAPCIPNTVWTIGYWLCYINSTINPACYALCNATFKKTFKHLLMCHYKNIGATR

D(3) dopamine receptor = D(3) dopamine receptor (Homo sapiens, UniProt P35462)
Sequence of D(3) dopamine receptor (P35462 whole entry): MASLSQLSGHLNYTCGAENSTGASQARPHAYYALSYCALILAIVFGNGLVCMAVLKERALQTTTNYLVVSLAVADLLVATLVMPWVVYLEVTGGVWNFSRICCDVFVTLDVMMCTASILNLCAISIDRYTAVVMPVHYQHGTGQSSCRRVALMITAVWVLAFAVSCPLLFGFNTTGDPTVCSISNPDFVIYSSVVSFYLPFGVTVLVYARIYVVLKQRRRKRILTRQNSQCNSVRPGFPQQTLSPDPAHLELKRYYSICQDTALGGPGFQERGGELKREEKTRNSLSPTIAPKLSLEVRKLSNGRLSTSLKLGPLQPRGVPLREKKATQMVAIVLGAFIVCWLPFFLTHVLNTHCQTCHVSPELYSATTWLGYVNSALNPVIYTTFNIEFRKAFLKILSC

Prothrombin = Prothrombin (Homo sapiens, UniProt P00734); type: functional
Histamine H3 receptor = Histamine H3 receptor (Homo sapiens, UniProt Q9Y5N1)
Sequence of Histamine H3 receptor (Q9Y5N1 whole entry): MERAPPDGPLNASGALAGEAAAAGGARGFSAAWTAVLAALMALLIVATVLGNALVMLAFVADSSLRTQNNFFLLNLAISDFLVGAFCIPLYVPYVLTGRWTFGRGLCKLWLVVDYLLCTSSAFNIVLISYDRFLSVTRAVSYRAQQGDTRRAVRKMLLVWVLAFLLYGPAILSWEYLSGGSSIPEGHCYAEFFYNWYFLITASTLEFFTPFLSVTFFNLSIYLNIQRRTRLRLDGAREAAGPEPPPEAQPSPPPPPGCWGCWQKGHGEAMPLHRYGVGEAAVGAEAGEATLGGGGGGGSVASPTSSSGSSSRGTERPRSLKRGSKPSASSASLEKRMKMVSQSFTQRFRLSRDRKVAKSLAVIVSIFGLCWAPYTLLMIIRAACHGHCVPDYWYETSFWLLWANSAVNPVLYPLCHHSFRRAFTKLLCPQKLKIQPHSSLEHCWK

[3] = target: T3, 5-hydroxytryptamine receptor 1A (Homo sapiens, UniProt P08908)
T3 sequence (P08908 whole entry): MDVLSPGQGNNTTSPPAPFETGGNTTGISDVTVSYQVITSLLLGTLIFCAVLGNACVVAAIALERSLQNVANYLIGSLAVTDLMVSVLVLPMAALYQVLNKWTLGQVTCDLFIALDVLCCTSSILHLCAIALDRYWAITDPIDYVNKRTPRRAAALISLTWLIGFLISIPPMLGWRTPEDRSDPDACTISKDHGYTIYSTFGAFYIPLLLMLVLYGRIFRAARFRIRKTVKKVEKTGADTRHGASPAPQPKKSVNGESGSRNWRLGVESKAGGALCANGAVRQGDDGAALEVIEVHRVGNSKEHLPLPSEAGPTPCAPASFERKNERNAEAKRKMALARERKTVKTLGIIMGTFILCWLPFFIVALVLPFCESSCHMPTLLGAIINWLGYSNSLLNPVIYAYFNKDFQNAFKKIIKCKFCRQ

[4] = target: T4, Amine oxidase [flavin-containing] A (Homo sapiens, UniProt P21397); type: functional
T4 sequence (P21397 whole entry): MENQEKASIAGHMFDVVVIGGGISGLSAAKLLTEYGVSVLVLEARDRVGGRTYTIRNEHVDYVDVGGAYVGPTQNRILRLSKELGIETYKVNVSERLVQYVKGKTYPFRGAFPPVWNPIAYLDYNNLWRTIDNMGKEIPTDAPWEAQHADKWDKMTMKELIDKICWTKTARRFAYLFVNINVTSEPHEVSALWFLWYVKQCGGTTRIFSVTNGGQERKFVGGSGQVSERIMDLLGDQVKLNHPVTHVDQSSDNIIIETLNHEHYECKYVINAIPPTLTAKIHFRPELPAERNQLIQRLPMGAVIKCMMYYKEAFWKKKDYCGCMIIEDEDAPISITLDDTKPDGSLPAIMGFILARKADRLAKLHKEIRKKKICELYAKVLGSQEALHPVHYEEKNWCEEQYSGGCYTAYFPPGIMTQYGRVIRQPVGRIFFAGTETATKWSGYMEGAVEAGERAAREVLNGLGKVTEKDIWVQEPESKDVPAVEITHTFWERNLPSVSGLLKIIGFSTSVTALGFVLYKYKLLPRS

Mu-type opioid receptor = Mu-type opioid receptor (Homo sapiens, UniProt P35372)
Sequence of Mu-type opioid receptor (P35372 whole entry): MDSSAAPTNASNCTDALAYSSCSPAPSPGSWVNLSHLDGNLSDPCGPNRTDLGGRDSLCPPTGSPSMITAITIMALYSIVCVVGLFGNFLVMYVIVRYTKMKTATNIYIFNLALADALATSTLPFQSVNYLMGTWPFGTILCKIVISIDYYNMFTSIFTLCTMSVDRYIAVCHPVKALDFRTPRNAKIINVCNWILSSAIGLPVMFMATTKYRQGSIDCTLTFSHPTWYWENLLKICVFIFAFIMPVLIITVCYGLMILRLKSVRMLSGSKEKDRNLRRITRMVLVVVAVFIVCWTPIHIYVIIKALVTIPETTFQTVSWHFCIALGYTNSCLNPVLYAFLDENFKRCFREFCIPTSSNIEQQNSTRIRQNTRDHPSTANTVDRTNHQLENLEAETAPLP

[5] = target: cGMP-inhibited 3',5'-cyclic phosphodiesterase 3A (Homo sapiens, UniProt Q14432); type: functional
Sequence of cGMP-inhibited 3',5'-cyclic phosphodiesterase 3A (Q14432 whole entry): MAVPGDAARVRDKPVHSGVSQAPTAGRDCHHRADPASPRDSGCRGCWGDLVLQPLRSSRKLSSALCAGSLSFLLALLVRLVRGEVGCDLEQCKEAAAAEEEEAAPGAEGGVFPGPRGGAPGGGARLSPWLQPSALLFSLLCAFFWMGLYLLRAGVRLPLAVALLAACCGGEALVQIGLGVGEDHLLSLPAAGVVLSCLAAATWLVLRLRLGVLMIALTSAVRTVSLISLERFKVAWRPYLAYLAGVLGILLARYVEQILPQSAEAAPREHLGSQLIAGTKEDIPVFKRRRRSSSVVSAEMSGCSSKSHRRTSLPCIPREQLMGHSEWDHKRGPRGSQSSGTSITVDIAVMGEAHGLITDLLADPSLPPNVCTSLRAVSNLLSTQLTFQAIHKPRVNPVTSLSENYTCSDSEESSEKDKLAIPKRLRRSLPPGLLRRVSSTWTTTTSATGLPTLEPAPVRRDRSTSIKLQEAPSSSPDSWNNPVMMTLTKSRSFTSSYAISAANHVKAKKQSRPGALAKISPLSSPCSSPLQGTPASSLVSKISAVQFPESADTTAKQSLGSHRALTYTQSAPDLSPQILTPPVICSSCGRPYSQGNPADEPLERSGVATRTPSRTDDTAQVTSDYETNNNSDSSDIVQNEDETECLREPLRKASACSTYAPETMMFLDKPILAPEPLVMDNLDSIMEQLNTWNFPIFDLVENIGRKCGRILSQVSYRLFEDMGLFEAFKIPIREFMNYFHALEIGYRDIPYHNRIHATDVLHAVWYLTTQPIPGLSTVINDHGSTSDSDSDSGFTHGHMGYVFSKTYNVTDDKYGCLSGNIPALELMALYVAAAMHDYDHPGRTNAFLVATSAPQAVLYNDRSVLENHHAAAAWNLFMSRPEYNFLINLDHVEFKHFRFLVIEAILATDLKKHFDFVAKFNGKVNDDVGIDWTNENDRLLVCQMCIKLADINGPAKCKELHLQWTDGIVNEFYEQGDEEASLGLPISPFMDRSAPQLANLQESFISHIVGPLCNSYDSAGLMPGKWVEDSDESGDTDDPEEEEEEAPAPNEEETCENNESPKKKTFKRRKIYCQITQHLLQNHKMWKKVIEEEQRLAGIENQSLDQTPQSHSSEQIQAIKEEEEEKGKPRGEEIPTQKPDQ

[6] = target: 3',5'-cyclic-AMP phosphodiesterase 4A (Homo sapiens, UniProt P27815); type: functional
Sequence of 3',5'-cyclic-AMP phosphodiesterase 4A (P27815 whole entry): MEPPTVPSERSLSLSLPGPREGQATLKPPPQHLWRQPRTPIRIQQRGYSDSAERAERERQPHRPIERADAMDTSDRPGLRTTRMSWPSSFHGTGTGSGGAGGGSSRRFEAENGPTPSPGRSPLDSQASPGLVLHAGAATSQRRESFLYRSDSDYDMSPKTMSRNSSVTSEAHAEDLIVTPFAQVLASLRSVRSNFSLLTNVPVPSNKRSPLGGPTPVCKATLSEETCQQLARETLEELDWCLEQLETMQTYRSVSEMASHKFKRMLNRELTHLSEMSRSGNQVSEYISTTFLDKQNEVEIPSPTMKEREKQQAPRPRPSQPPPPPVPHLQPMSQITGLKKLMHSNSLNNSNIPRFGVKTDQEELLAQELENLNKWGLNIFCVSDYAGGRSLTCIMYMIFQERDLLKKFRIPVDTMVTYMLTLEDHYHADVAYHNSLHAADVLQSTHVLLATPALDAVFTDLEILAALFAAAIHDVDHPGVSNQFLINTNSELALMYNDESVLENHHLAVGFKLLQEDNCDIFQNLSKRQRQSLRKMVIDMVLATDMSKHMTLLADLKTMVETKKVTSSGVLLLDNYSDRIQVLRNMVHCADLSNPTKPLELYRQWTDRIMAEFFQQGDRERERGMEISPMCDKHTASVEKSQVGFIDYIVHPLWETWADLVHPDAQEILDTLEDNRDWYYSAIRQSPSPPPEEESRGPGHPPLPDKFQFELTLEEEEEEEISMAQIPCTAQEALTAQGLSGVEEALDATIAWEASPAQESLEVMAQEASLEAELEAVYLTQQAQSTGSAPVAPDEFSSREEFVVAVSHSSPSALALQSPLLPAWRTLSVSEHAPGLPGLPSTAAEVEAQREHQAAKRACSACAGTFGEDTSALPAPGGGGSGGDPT

[7] = target: T5, Prostaglandin G/H synthase 1 (Homo sapiens, UniProt P23219); type: functional
T5 sequence (P23219 whole entry): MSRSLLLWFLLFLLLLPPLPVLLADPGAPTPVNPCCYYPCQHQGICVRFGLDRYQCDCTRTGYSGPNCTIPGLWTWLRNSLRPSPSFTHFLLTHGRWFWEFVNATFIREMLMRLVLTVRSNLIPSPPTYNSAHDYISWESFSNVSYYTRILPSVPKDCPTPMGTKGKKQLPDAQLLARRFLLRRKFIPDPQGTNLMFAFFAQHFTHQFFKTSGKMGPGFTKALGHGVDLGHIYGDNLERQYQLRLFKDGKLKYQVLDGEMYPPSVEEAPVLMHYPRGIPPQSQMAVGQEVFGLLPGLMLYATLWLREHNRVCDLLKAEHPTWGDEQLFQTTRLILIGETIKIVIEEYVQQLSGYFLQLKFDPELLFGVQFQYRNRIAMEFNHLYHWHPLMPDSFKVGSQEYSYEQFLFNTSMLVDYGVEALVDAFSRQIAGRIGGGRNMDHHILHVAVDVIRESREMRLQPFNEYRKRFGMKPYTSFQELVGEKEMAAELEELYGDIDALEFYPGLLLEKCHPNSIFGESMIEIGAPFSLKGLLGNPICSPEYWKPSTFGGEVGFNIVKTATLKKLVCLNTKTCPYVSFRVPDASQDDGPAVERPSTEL

[8] = target: T5, Prostaglandin G/H synthase 1; type: functional; remark: listed apart in the source
Thromboxane A2 receptor [9] = target: T6, Thromboxane A2 receptor (Homo sapiens, UniProt P21731); type: functional, cell-based
T6 sequence (P21731 whole entry): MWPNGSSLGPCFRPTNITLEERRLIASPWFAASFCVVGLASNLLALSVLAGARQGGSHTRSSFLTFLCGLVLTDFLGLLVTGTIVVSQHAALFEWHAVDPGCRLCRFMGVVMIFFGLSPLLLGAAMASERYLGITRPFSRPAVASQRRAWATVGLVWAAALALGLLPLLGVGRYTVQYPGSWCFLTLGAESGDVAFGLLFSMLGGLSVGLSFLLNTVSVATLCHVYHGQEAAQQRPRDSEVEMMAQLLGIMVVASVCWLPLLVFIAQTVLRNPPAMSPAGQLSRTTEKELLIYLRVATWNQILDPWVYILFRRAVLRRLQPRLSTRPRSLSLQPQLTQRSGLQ

Thromboxane A2 receptor [10] = target: T6, Thromboxane A2 receptor; type: functional, cell-based; remark: listed apart in the source
Also: assay procedure not described here.

Sequence of Acetylcholinesterase (P22303 whole entry): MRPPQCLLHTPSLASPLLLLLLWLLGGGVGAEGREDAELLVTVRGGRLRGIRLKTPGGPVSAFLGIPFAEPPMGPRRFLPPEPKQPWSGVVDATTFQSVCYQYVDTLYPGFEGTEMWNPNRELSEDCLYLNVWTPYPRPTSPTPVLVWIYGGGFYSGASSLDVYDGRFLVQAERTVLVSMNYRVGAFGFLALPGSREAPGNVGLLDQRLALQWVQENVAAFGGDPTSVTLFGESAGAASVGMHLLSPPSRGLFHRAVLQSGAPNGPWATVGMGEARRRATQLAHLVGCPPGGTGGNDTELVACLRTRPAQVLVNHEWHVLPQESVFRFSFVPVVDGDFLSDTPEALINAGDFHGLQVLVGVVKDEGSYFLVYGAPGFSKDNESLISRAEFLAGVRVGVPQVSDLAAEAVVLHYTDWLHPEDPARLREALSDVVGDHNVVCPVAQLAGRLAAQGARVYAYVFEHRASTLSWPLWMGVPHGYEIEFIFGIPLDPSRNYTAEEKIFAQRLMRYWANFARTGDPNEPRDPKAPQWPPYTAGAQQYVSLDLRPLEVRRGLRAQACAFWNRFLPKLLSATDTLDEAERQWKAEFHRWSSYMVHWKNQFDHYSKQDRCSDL

Structure (SMILES) | AC50 (Bile salt export pump) [µM] | AC50 (Acetylcholinesterase) [µM] | AC50 [1] [µM] | AC50 [2] [µM] | AC50 (D(3) dopamine receptor) [µM] | AC50 (Prothrombin) [µM] | AC50 (Histamine H3 receptor) [µM] | AC50 [3] [µM] | AC50 [4] [µM] | AC50 (Mu-type opioid receptor) [µM] | AC50 [5] [µM] | AC50 [6] [µM] | AC50 [7] [µM] | AC50 [8] [µM] | AC50 (Thromboxane A2 receptor [9]) [µM] | AC50 (Thromboxane A2 receptor [10]) [µM]
CC(=O)Oc1ccccc1C(=O)Nc1ncc([N+](=O)[O-])s1 [NITAZOXANIDE] | 45 | > 10 | > 30 | > 30 | > 30 | > 30 | > 30 | > 30 | > 30 | > 30 | > 30 | > 30 | 0.0114 | 9.53 | > 30 | > 10
CC(C)COc1ccc(CNC(=O)N(Cc2ccc(F)cc2)C2CCN(C)CC2)cc1 [PIMAVANSERIN] | 65 | > 30 | > 30 | 4.6 | 2.66 | > 30 | 28.7 | > 30 | > 30 | 16.7 | > 30 | > 30 | > 30 | > 30 | 14.1 | > 3
CC(C)[N+](C)(CCOC(=O)C1c2ccccc2Oc2ccccc21)C(C)C [PROPANTHELINE] | > 300 | > 30 | > 30 | 0.003 | > 30 | > 30 | > 30 | > 30 | > 30 | > 30 | > 30 | > 30 | > 30 | > 30 | > 30 | > 30
CNC(=O)c1cc(Oc2ccc(NC(=O)Nc3ccc(Cl)c(C(F)(F)F)c3)c(F)c2)ccn1 [REGORAFENIB] | 3 | > 30 | > 10 | > 30 | > 30 | > 30 | > 30 | 1.42 | > 30 | 4.43 | > 30 | > 30 | > 30 | 17.5 | > 30 | 6.35
NC(=O)NS(=O)(=O)c1ccc(N)cc1 [SULFACARBAMIDE] | > 300 | > 30 | > 30 | > 30 | > 30 | > 30 | > 30 | > 30 | > 30 | > 30 | > 30 | > 30 | > 30 | > 30 | > 30 | > 30
CC1(C)O[C@@H]2[C@@H](CO[C@@]3(COS(N)(=O)=O)OC(C)(C)O[C@@H]23)O1 [TOPIRAMATE] | > 300 | > 30 | > 30 | > 30 | > 30 | > 30 | > 30 | > 30 | > 30 | > 30 | > 30 | > 30 | > 30 | > 30 | > 30 | > 30
